The record followed here is patent publication US5484776A, “Process for the production of stable liquid form of beta-blocker-containing medicaments with controlled release of the active constituent for oral administration” (Synepos Aktiengesellschaft, priority 1993, dated 1996).

A short description of the data set: Drop size / reproducibility of drops of oral solutions with xanthan gum. The data set is classed as physicochemical. To be noted: metoprolol 200 mg/ml, sotalol 160 mg/ml, atenolol 50 mg/ml, n = 10. The source says: It was found also in this respect that when the concentration of Xanthan Gum was varied in the solution, the scattering of the exact number of drops was higher at both below and above 0.1% than at about this particular concentration (see Table II.).
Using a standard medicine dropper, 10 drops of the medicinal solutions prepared according to Examples 1-11 contain one usual dose of the beta-blocker in a stable form and ensuring reproducible dosage with the required accuracy, the difference by one drop corresponding to a deviation of less than 10%.
Drop size values of different solutions of β-blockers
and xanthan gum as auxiliary material (n = 10,

Each structure is given as a SMILES string.

On to `CC(C)NCC(O)COc1ccc(CC(N)=O)cc1` (stereo not drawn) [Atenolol, atenolol], for which the “Average Mass of 10 Drops” value runs as follows: (0.001% xanthan gum) 0.4038 g; (0.01% xanthan gum) 0.4094 g; (0.1% xanthan gum) 0.4395 g; (0.25% xanthan gum) 0.4604 g; (0.5% xanthan gum) 0.4456 g.
Regarding `COCCc1ccc(OCC(O)CNC(C)C)cc1` (stereo not drawn) [Metoprolol, metoprolol], the “Average Mass of 10 Drops” value reads like this: (0.001% xanthan gum) 0.3490 g; (0.01% xanthan gum) 0.3446 g; (0.1% xanthan gum) 0.3301 g; (0.25% xanthan gum) 0.3497 g; (0.5% xanthan gum) 0.3559 g.
For `CC(C)NCC(O)c1ccc(NS(C)(=O)=O)cc1` (stereo not drawn) [Sotalol, sotalol], the “Average Mass of 10 Drops” value runs as follows: (0.001% xanthan gum) 0.3805 g; (0.01% xanthan gum) 0.4067 g; (0.1% xanthan gum) 0.4171 g; (0.25% xanthan gum) 0.4345 g; (0.5% xanthan gum) 0.4052 g.
